The record followed here is patent US3945994A, “Novel acid compounds” (Gist-Brocades N.V., priority 1973, dated 1976).

The structures appear in SMILES notation. ≈ marks a conversion by molar mass, not a printed value. Where two headings read alike, the source gives them in different places.

What all share (format): cell-based
The subject of experiment [1] is Klebsiella pneumoniae A 809. Particulars: A809, agar serial dilution, 24 hours at 37°C.
Experiment [2] concerns Salmonella typhimurium R 127. Particulars: Salmonella enterica, agar serial dilution, 24 hours at 37°C.
Experiment [3] has as its system Staphylococcus aureus A 2001. The conditions noted are these: A2001, agar serial dilution, 24 hours at 37°C.
In another experiment the test system is Escherichia coli U 20. Particulars: U20, agar serial dilution, 24 hours at 37°C.
Experiment [4] relates to Diplococcus pneumoniae L 54. Particulars: Streptococcus pneumoniae, L54; agar serial dilution, 24 hours at 37°C.
The subject of experiment [5] is Streptococcus faecalis L 80. Particulars: Enterococcus faecalis, L80; agar serial dilution, 24 hours at 37°C.
In a further experiment the test system is Proteus mirabilis H 3. The conditions noted are these: H3, agar serial dilution, 24 hours at 37°C.
A further experiment deals with Proteus morganii 2241. The conditions noted are these: Morganella morganii, agar serial dilution, 24 hours at 37°C.
The subject of experiment [6] is Pseudomonas aeruginosa Wyeth A 1058. Particulars: WYETHA1058, agar serial dilution, 24 hours at 37°C.
Experiment [7] has as its system Staphylococcus aureus A 355'. The conditions noted are these: agar serial dilution, 24 hours at 37°C.
Experiment [8] has as its system Streptococcus haemolyticus A 266. The conditions noted are these: A266, agar serial dilution, 24 hours at 37°C.
The test system of experiment [9] is Pasteurella multocida A 723. Particulars: A723, agar serial dilution, 24 hours at 37°C.
Experiment [10] deals with Staphylococcus aureus A 2000. The conditions noted are these: A2000, agar serial dilution, 24 hours at 37°C.
Experiment [11] deals with Haemophilus influenzae A 1030. Particulars: A1030, agar serial dilution, 24 hours at 37°C.
Experiment [12] concerns Pseudomonas aeruginosa H 10. The conditions noted are these: H10, agar serial dilution, 24 hours at 37°C.
For the next experiment, the system named is Proteus mirabilis A 1200. The conditions noted are these: A1200, agar serial dilution, 24 hours at 37°C.
Experiment [13] has as its system Proteus rettgeri A 821. The conditions noted are these: Providencia rettgeri, A821; agar serial dilution, 24 hours at 37°C.
The subject of experiment [14] is Staphylococcus aureus A 321. The conditions noted are these: A321, agar serial dilution, 24 hours at 37°C.
The subject of another experiment is Salmonella dublin P 43. The conditions noted are these: Salmonella enterica, P43; agar serial dilution, 24 hours at 37°C.
Experiment [15] relates to Pseudomonas aeruginosa 2396. The conditions noted are these: agar serial dilution, 24 hours at 37°C.
Experiment [16] deals with Bacillus subtilis ATCC 6633. Particulars: ATCC6633, agar serial dilution, 24 hours at 37°C.
The test system of experiment [17] is Streptococcus haemolyticus A 1088. The conditions noted are these: A1088, agar serial dilution, 24 hours at 37°C.
The subject of another experiment is Proteus mirabilis H3. Put plainly: micro serial dilution test, MIC. Particulars: micro serial dilution (between brackets), 30°C or 37°C, about 18 hours.
Experiment [18] has as its system Salmonella typhimurium R172. The conditions noted are these: Salmonella enterica, agar serial dilution, 24 hours at 37°C.
Experiment [19] has as its system Haemophilus influenzae A 1030. Put plainly: micro serial dilution test, MIC. The conditions noted are these: A1030, micro serial dilution (between brackets), 30°C or 37°C, about 18 hours.
The subject of another experiment is Proteus mirabilis A1200. Put plainly: micro serial dilution test, MIC. Particulars: micro serial dilution (between brackets), 30°C or 37°C, about 18 hours.
For experiment [20], the system named is Proteus rettgeri A 821. The experiment is described as follows: micro serial dilution test, MIC. The conditions noted are these: Providencia rettgeri, A821; micro serial dilution (between brackets), 30°C or 37°C, about 18 hours.

Turning to `CCOC(=O)NNS(=O)(=O)NC(=O)N[C@@H](C(=O)N[C@@H]1C(=O)N2[C@@H]1SC(C)(C)[C@@H]2C(=O)O)c1ccccc1` [XV, D-6-[α-{3-(ethoxycarbonylhydrazinosulfonyl)-ureido}benzylcarbonamido]-penicillanic acid], the MIC in [1] is 100 µg/mL (≈ 179 µM); in experiment [2], 50 µg/mL (≈ 89.5 µM); in experiment [3], 6 µg/mL (≈ 10.7 µM); against Escherichia coli U 20 it was 12.5 µg/mL (≈ 22.4 µM); in [4], 9 µg/mL (≈ 16.1 µM); in [5], 25 µg/mL (≈ 44.8 µM). For the same molecule, the MIC against Proteus mirabilis H 3 is 3 µg/mL (≈ 5.37 µM); against Proteus morganii 2241, 6 µg/mL (≈ 10.7 µM); in experiment [6], 100 µg/mL (≈ 179 µM); in experiment [7] it was 12.5 µg/mL (≈ 22.4 µM); in experiment [8], 0.5 µg/mL (≈ 0.895 µM); in experiment [9], 0.25 µg/mL (≈ 0.448 µM). The MIC in [10] is 12.5 µg/mL (≈ 22.4 µM); in experiment [11] it was 1.5 µg/mL (≈ 2.69 µM); in experiment [12], over 100 µg/mL; in the experiment with Proteus mirabilis A 1200, 1.5 µg/mL (≈ 2.69 µM); in the experiment on Proteus rettgeri A 821 [13], 1 µg/mL (≈ 1.79 µM); in experiment [14], 1.5 µg/mL (≈ 2.69 µM). For the same molecule, the MIC in the experiment on Salmonella dublin P 43 was found to be 12.5 µg/mL (≈ 22.4 µM); in experiment [15], 50 µg/mL (≈ 89.5 µM); in [16], 1 µg/mL (≈ 1.79 µM).

`CC1(C)S[C@@H]2[C@H](NC(=O)C(C(=O)O)c3ccccc3)C(=O)N2[C@H]1C(=O)O` (some centres unmarked) [carbenicillin, reference compound]: the MIC is over 100 µg/mL in experiment [1]; 0.25 µg/mL (≈ 0.661 µM) in experiment [17]; 3 µg/mL (≈ 7.93 µM) in experiment [3]; 1.5 µg/mL (≈ 3.96 µM) against Escherichia coli U 20; 0.6 µg/mL (≈ 1.59 µM) in the experiment on Proteus mirabilis H3; 6 µg/mL (≈ 15.9 µM) in [18]. The MIC was 0.5 µg/mL (≈ 1.32 µM) in [4]; 25 µg/mL (≈ 66.1 µM) in [5]; 1.5 µg/mL (≈ 3.96 µM) with Proteus morganii 2241; 25 µg/mL (≈ 66.1 µM) in [6]; 90 µg/mL (≈ 238 µM) in experiment [19]; 0.25 µg/mL (≈ 0.661 µM) in experiment [9]. Besides, the MIC is 0.45 µg/mL (≈ 1.19 µM) with Proteus mirabilis A1200; 3 µg/mL (≈ 7.93 µM) in experiment [10]; 100 µg/mL (≈ 264 µM) in experiment [12]; 0.12 µg/mL (≈ 0.317 µM) against Proteus rettgeri A 821 [20]; 0.75 µg/mL (≈ 1.98 µM) in experiment [14]; 1.5 µg/mL (≈ 3.96 µM) in the experiment on Salmonella dublin P 43. In addition, the results for the MIC in experiment [15] and in experiment [16] were 25 µg/mL (≈ 66.1 µM) and 0.06 µg/mL (≈ 0.159 µM), respectively.
